For test [1], the system named is lung cancer cell line (A549). The test can be described thus: Cell viability assay (CellTiter-Glo), A549. It counts as cell-based. The following applies: for IC50: A549 cells, 3 days incubation, CellTiter-Glo luminescence, 50% of untreated control. How it is done: (§1) FaDu or A549 cell lines were seeded into 96-well plates at a density of 3,000 cells per well and incubated at 37° C., 5% CO2. After 24 hours, 100 μL of drug at 9 concentrations (from 1000 nM, serially diluted 1/5) was added to the cell line. As the drugs, the compound of Chemical Formula 2 prepared according to Example 1, SC209 (MedChemExpress), and MMAE were treated, and at this time, a control group (drug concentration 0) without drug treatment was also prepared. After incubation under incubator conditions (37° C., 5% CO2) for 3 days, 100 µL of
(§2) CellTiter-Glo reagent (using CellTiter-Glo® Luminescent Cell Viability Assay kit (Promega, G7571)) was added to each well of the plate, followed by pipetting. After incubation for 10 minutes (RT), luminescence was measured, and when the luminescence value at drug concentration 0 is regarded as 100%, the concentration showing 50% luminescence value is the IC50 value.

The test system of test [2] is head and neck squamous cell carcinoma cell line (FaDu). The test can be described thus: Cell viability assay (CellTiter-Glo), FaDu. It counts as cell-based. The following applies: for IC50: FaDu cells, 3 days incubation, CellTiter-Glo luminescence, 50% of untreated control. How it is done: as §1, §2

Square brackets hold non-standard residues; d marks the D form. Peptide text beside a SMILES is read from it. * marks the point of attachment. Dolaproine = CO[C@@H]([C@@H]1CCCN1)[C@@H](C)C(=O)O; Dil = CC[C@H](C)[C@H](NC)[C@@H](CC(=O)O)OC; X1 = C[C@@H](N*)[C@@H](O)c1ccccc1; NMeV = CN[C@H](C(=O)O)C(C)C

This is an account of results in patent US20260263616A1, “NOVEL HE[…] USE THEREOF” (PINOTBIO, INC., priority 2023, published 2026).

A word on the IC50: it is the midpoint of a concentration-inhibition curve. A high value points to lower potency. On to `CN[C@H](C(=O)N[C@H](C(=O)N(C)[C@H](/C=C(\C)C(=O)O)C(C)C)C(C)(C)C)C(C)(C)c1ccc(OC)c(N)c1` [Compound of Chemical Formula 2], for which the IC50 in test [1] (Homo sapiens, 72 h) was determined as 22.6 nM; in test [2] (Homo sapiens, 72 h) it was 6.17 nM. The “cell viability compared with SC209 and MMAE” value in test [1] (lung cancer cell line (printed A529), 3 days treatment) was “decreased to a level similar to that observed with SC209 and MMAE treatment”; in test [2] (FaDu cell line, 3 days treatment), “decreased to a level similar to that observed with SC209 and MMAE treatment”.
With `CC[C@H](C)[C@@H]([C@@H](CC(=O)N1CCC[C@H]1[C@H](OC)[C@@H](C)C(=O)N[C@H](C)[C@@H](O)c1ccccc1)OC)N(C)C(=O)[C@@H](NC(=O)[C@@H](NC)C(C)C)C(C)C` [MMAE, reference compound] (H-[NMeV]V[Dil][Dolaproine]-X1), the figures for the IC50 in test [1] and in test [2] were 3.72 nM and 1.57 nM, respectively.
